Assay: MIC of test compounds against various organisms
Type: cell-based
Details: versus all of these organisms (S. epidermidis CL7, S. aureus WCUH29, S. pneumoniae 1629, S. pyogenes CN10, H. influenzae ATCC49247, E. faecalis 2, E. faecium 8, M. catarrhalis Ravisio, E. coli 7623)
From the text: The MIC (μg/ml) of test compounds against various organisms may be determined:
S. epidermidis CL7, S. aureus WCUH29, S. pneumoniae 1629, S. pyogenes CN10, H. influenzae ATCC49247, E. faecalis 2, E. faecium 8, M. catarrhalis Ravisio, E. coli 7623.

MIC [µg/mL] | SMILES
≤ 2 | COc1ccc2nccc([C@@H](O)CN3CCC(NCc4ccc5c(n4)NC(=O)CO5)C(F)C3)c2n1 (single isomer, unassigned) [Example 20]
≤ 2 | COc1ccc2nccc([C@@H](O)CN3CCC(NCc4ccc5c(n4)NC(=O)CS5)C(F)C3)c2c1 (single isomer, unassigned) [Example 6]
≤ 2 | COc1cc(F)c2nccc([C@@H](O)CN3CCC(NCc4ccc5c(n4)NC(=O)CO5)C(F)C3)c2c1 (single isomer, unassigned) [Example 26]

Second part, the molecule before the results:

SMILES | MIC [µg/mL]
COc1ccc2nccc([C@@H](O)CN3CCC(NCc4ccc5c(n4)NC(=O)CO5)C(F)C3)c2c1 (single isomer, unassigned) [Example 10] | ≤ 2
COc1ccc2nccc([C@@H](O)CN3CCC(NCc4nc5c(cc4Cl)OCC(=O)N5)C(F)C3)c2n1 (single isomer, unassigned) [Example 24] | ≤ 2
COc1cc(F)c2nccc([C@@H](O)CN3CCC(NCc4ccc5c(n4)NC(=O)CS5)C(F)C3)c2c1 (single isomer, unassigned) [Example 27] | ≤ 2

Same assay, conditions: versus some of these organisms (panel of b704; which ones not stated)

SMILES | MIC [µg/mL]
COc1ccc2nccc([C@@H](O)CN3CC[C@@H](NCc4ccc5c(n4)NC(=O)CS5)C[C@H]3C(F)(F)F)c2n1 [Example 37] | ≤ 16

— US7312212B2, “Aminopiperidine derivatives” (priority 2002, dated 2007)
